From US8829200B2, “Benzimidazole inhibitors of leukotriene production” (Boehringer Ingelheim International GmbH, priority 2010, dated 2014)

Columns and labels:
[1] = tested on: biomarkers for myocardial infarction risk; conditions: clinical trial; cited from earlier work
[2] = molecular target: recombinant human FLAP protein (Homo sapiens (Human), UniProt P20292); assay: FLAP binding assay (Scintillation Proximity Assay); conditions: displacement of [125I]L-691,831, membranes of sf9 cells expressing human FLAP; read-out: SPA IC50
Experimental: Compounds are assessed for the ability to bind to FLAP in a binding assay that measures compound-specific displacement of an iodinated (^125I) FLAP inhibitor via a Scintillation Proximity Assay format (adapted from S. Charleson et al., Mol. Pharmacol., 1992, 41, 873-879).
Cell pellets produced from sf9 insect cells expressing recombinant human FLAP protein are resuspended in buffer A [15 mM Tris-HCl (pH 7.5), 2 mM MgCl2, 0.3 mM EDTA, 1 mM PMSF]. The cells are lysed with a Dounce homogenizer and the material is centrifuged at 10,000×g for 10 minutes. The supernatant is then collected and centrifuged at 100,000×g for 60 minutes. To prepare membrane protein for an assay, an aliquot of the 100,000×g pellet is resuspended in 1 ml of buffer A, Dounce homogenized, and finally subjected to polytron mixing (30 seconds). Membrane protein (25 μl, 5 μg) is mixed with WGA SPA beads (Amersham) and stirred for 1 h. To an assay plate (Perkin Elmer FlexiPlate) is added 25 μl of test compound prepared in Binding buffer [100 mM Tris (pH 7.5), 140 mM NaCl, 5% glycerol, 2 mM EDTA, 0.5 mM TCEP, 0.05% Tween 20], 25 μl of [^125I]L-691,831 (an iodinated analog of MK-591, Charleson et al. Mol. Pharmacol., 41, 873-879, 1992) and finally 50 μl of the bead/protein mixture. (final concentrations: beads, 200 μg/well; protein, 5 μg/well; [^125I] probe, 0.08 nM/well (17 nCi/well). The plates are shaken for 2 h before reading on a Microbeta plate reader. Non-specific binding is determined by the addition of 10 μM cold L-691,831 compound.

[3] = tested on: synthesis of LTB4 in human whole blood; assay: human whole blood LTB4 production inhibition assay; format: cell-based; conditions: heparinized human whole blood, calcimycin-stimulated, plasma LTB4; read-out: hWB IC50
Experimental: Compounds are additionally tested in a human whole blood assay to determine their ability to inhibit the synthesis of LTB4 in a cellular system. Compounds are combined with heparinized human whole blood and incubated for 15 minutes at 37° C. Calcimycin ([…], prepared in phosphate-buffered saline, pH 7.4) is then added and the mixture is incubated for another 30 minutes at 37° C. The samples are centrifuged for 5 min at low speed (1500×g) and the plasma layer is removed. Plasma LTB4 concentrations are then measured using an antibody-based homogenous time-resolved fluorescence method (CisBio, Bedford, Mass.).

human glomerulonephritis = conditions: clinical trial; cited from earlier work
ApoE−/−xCD4dnTβRII mice = conditions: administration via infusion, treated for four weeks; cited from earlier work
[4] = tested on: apoE/LDL-R double knockout mice; conditions: oral dosing, high-fat diet from 2 months of age to 6 months; cited from earlier work

recombinant human FLAP protein, sequence (P20292 whole entry): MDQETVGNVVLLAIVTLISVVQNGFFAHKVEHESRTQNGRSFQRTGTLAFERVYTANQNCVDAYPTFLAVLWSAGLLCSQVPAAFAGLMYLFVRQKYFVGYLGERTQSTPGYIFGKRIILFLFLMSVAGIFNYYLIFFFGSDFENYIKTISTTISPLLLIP

IC50 [2]	IC50 [3]	Compound	further results
–	–	O=C(O)[C@@H](c1ccc(OCc2ccc3ccccc3n2)cc1)C1CCCC1 [DG-031]	effect on biomarkers for myocardial infarction risk [1]: dose-dependent suppression of several biomarkers
0.0174 µM	2.23 µM	CCNC(=O)c1ccccc1-c1nc2cc(-c3cnc(N)nc3)ccc2n1C(C)(C)C [Example 23, 2-[5-(2-Amino-pyrimidin-5-yl)-1-tert-butyl-1H-benzoimidazol-2-yl]-N-ethyl-benzamide]	–
0.14 µM	2.87 µM	CN(C)CCNC(=O)c1ccccc1-c1nc2cc(-c3cnc(N)nc3)ccc2n1C(C)(C)C [Example 24, 2-[5-(2-Amino-pyrimidin-5-yl)-1-tert-butyl-1H-benzoimidazol-2-yl]-N-(2-dimethylamino-ethyl)-benzamide]	–
0.46 µM	> 5 µM	CC(C)(C)n1c(-c2ccccc2C(=O)NC2CCNCC2)nc2cc(-c3cnc(N)nc3)ccc21 [Example 25, 2-[5-(2-Amino-pyrimidin-5-yl)-1-tert-butyl-1H-benzoimidazol-2-yl]-N-piperidin-4-yl-benzamide]	–
0.0346 µM	4.9 µM	CC(C)NC(=O)c1ccccc1-c1nc2cc(-c3cnc(N)nc3)ccc2n1C(C)(C)C [Example 26, 2-[5-(2-Amino-pyrimidin-5-yl)-1-tert-butyl-1H-benzoimidazol-2-yl]-N-isopropyl-benzamide]	–
0.52 µM	> 5 µM	CC(C)(C)n1c(-c2ccccc2C(=O)N2CCOCC2)nc2cc(-c3cnc(N)nc3)ccc21 [Example 28, {2-[5-(2-Amino-pyrimidin-5-yl)-1-tert-butyl-1H-benzoimidazol-2-yl]-phenyl}-morpholin-4-yl-methanone]	–
0.2 µM	3.05 µM	CN(C)C(=O)c1ccccc1-c1nc2cc(-c3cnc(N)nc3)ccc2n1C(C)(C)C [Example 29, 2-[5-(2-Amino-pyrimidin-5-yl)-1-tert-butyl-1H-benzoimidazol-2-yl]-N,N-dimethyl-benzamide]	–
0.02 µM	3.08 µM	CNC(=O)c1cc(F)ccc1-c1nc2cc(-c3cnc(N)nc3)ccc2n1C(C)(C)C [Example 33, 2-[5-(2-Amino-pyrimidin-5-yl)-1-tert-butyl-1H-benzoimidazol-2-yl]-5-fluoro-N-methyl-benzamide]	–
0.0158 µM	0.906 µM	CNC(=O)c1cccc(F)c1-c1nc2cc(-c3cnc(N)nc3)ccc2n1C(C)(C)C [Example 34, 2-[5-(2-Amino-pyrimidin-5-yl)-1-tert-butyl-1H-benzoimidazol-2-yl]-3-fluoro-N-methyl-benzamide]	–
–	–	CC(C)(C)Sc1c(CC(C)(C)C(=O)O)n(Cc2ccc(Cl)cc2)c2ccc(OCc3ccc4ccccc4n3)cc12 [MK-591]	effect on proteinuria (human glomerulonephritis): reduce proteinuria
–	–	CC(C)c1ccc2c(c1)c(SC(C)(C)C)c(CC(C)(C)C(=O)O)n2Cc1ccc(Cl)cc1 [MK-886]	decrease in plaque area in the aortic root (ApoE−/−xCD4dnTβRII mice): ~40%; decrease in plaque coverage in the aorta [4]: 56%; decrease in plaque coverage in the aortic root [4]: 43%
